Reference: ChEMBL document CHEMBL3045310, “Synthesis of new benzotriazepin-5(2H)-one derivatives of expected antipsychotic activity” (Med Chem Res, 2013)
Calls of active or inactive are those of the source. No cut-off for these calls is given here.

What was measured:
[1] = tested on: Mus musculus; experiment: Anticonvulsant activity in Mus musculus albino (mouse) assessed as inhibition of PTZ-induced seizure at 3 mg/kg, ip administered 1 hr prior to PTZ-challenge measured after 2 to 4 min relative to control; type: functional, organism-based; set-up: dose 3 mg/kg
[2] = tested on: Mus musculus; experiment: Neurotoxicity against Mus musculus albino (mouse) assessed as inability to climb horizontal screen at 3 mg/kg, ip after 30 min by horizontal screen test relative to control; type: toxicity, organism-based; set-up: dose 3 mg/kg, route intraperitoneal; conditions: in vivo, 0.5 h
[3] = tested on: Mus musculus; experiment: Neurotoxicity against Mus musculus albino (mouse) assessed as fall from horizontal screen at 3 mg/kg, ip after 30 min by horizontal screen test relative to control; type: toxicity, organism-based; set-up: dose 3 mg/kg, route intraperitoneal; conditions: in vivo, 0.5 h
[4] = tested on: Mus musculus; experiment: Neurotoxicity against Mus musculus albino (mouse) at 3 mg/kg, ip after 30 min by rotarod test; type: toxicity, organism-based; set-up: dose 3 mg/kg, route intraperitoneal; conditions: in vivo, 0.5 h
[5] = tested on: Mus musculus; experiment: CNS depressant activity in Mus musculus albino (mouse) assessed as immobility time at 3 mg/kg, ip measured after 24 hr by forced swim test (reference value: 120 +/- 5.1 secs); type: functional; conditions: route intraperitoneal
[6] = tested on: Mus musculus; experiment: Antipsychotic activity in Mus musculus albino (mouse) assessed as ptosis at 3 mg/kg, ip relative to control; type: functional; conditions: route intraperitoneal

CN1CN(c2ccccc2)NC(=O)c2ccccc21
inhibition [1]: inactive | Activity [2]: 0% | Activity [3]: 50% | Activity [4]: Toxic | Time [5]: 178 s | Activity [6]: 100%

COc1cc(C2N(C)c3ccccc3C(=O)NN2c2ccccc2)cc(OC)c1OC (configuration not stated)
inhibition [1]: inactive | Activity [2]: 0% | Activity [3]: 0% | Activity [4]: Non-toxic | Time [5]: 135 s | Activity [6]: 50%

CN1c2ccccc2C(=O)NN(c2ccccc2)C1c1ccc(Cl)cc1 (configuration not stated)
inhibition [1]: inactive | Activity [2]: 33.3% | Activity [3]: 33.3% | Activity [4]: Toxic | Time [5]: 156 s | Activity [6]: 50%

CN1c2ccccc2C(=O)NN(c2ccccc2)C1c1ccccc1 (configuration not stated)
inhibition [1]: inactive | Activity [2]: 0% | Activity [3]: 0% | Activity [4]: Non-toxic | Time [5]: 118 s | Activity [6]: 0%

CN1c2ccccc2C(=O)NN(c2ccccc2)C1c1ccccc1[N+](=O)[O-] (configuration not stated)
inhibition [1]: inactive | Activity [2]: 16.7% | Activity [3]: 16.7% | Activity [4]: Toxic | Time [5]: 141 s | Activity [6]: 0%

CN1c2ccccc2C(=O)NN(c2ccccc2)C1c1ccc(Br)cc1 (configuration not stated)
inhibition [1]: inactive | Activity [2]: 16.7% | Activity [3]: 16.7% | Activity [4]: Toxic | Time [5]: 140 s | Activity [6]: 0%

CN1c2ccccc2C(=O)NN(c2ccccc2)C1c1ccc([N+](=O)[O-])cc1 (configuration not stated)
inhibition [1]: inactive | Activity [2]: 0% | Activity [3]: 0% | Activity [4]: Non-toxic | Time [5]: 125 s | Activity [6]: 50%

CN1C(=S)N(c2ccccc2)NC(=O)c2ccccc21
inhibition [1]: inactive | Activity [2]: 0% | Activity [3]: 0% | Activity [4]: Non-toxic | Time [5]: 129 s | Activity [6]: 100%

COc1ccc(C2N(C)c3ccccc3C(=O)NN2c2ccccc2)cc1 (configuration not stated)
inhibition [1]: inactive | Activity [2]: 0% | Activity [3]: 16.7% | Activity [4]: Toxic | Time [5]: 141 s | Activity [6]: 75%

CN1CCN(C2=Nc3cc(Cl)ccc3Nc3ccccc32)CC1 [CLOZAPINE]
inhibition [1]: inactive | Activity [2]: 16.7% | Activity [3]: 50% | Activity [4]: Toxic | Time [5]: 194 s | Activity [6]: 100%

CN1CN(C(=O)c2ccncc2)NC(=O)c2ccccc21
inhibition [1]: inactive | Activity [2]: 16.7% | Activity [3]: 33.3% | Activity [4]: Toxic | Time [5]: 190 s | Activity [6]: 100%

CN1c2ccccc2C(=O)NN(c2ccccc2)C1c1ccc(O)cc1 (configuration not stated)
inhibition [1]: inactive | Activity [2]: 0% | Activity [3]: 16.7% | Activity [4]: Toxic | Time [5]: 151 s | Activity [6]: 75%
